Results from ChEMBL document CHEMBL1138873, “A novel antiproliferative agent, phenylpyridineylbutenol, isolated from Streptomyces sp” (Bioorg Med Chem Lett, 2006).

Columns and labels:
Format in all cases: functional, cell-based
A549 = assay: Antiproliferative activity against human A549 by MTT assay
HepG2 = assay: Antiproliferative activity against human HepG2 by MTT assay
HeLa = assay: Antiproliferative activity against human HeLa by MTT assay
AGS = assay: Antiproliferative activity against human AGS by MTT assay

IC50 (A549): 1130 µM
IC50 (HepG2): 1600 µM
IC50 (HeLa): 1380 µM
IC50 (AGS): 1980 µM
SMILES: OC/C=C(\Cc1ccccc1)c1ccccn1
